Source: patent publication US6403617B1, “Diaminopyridine-containing thiourea inhibitors of herpes viruses” (American Home Products Corp., priority 1998, dated 2002)
In brackets after ≈: the same amount, converted by molar mass.

Key:
HSV-1 = test: HSV Antiviral (ELISA) Assay; format: cell-based, herpes simplex virus type 1; conditions: Vero cells, HSV-1, about 24 hours post-infection; for IC50: Human alphaherpesvirus 1, read-out: IC50 (ug/ml) HSV
Protocol: Vero cells (ATCC #CCL-81) are plated on 96-well tissue cultugre plates at 3.5×10^4 cells per 100 μl tissue culture DMEM (Dulbecco's modified Eagle media) supplemented with 2% fetal bovine serum (FBS) in each well. After overnight incubation @ 37° C. (in 5% CO2) and 30 minutes prior to infection with HSV-1 (multiplicity of infection equal to 0.006), cells are either untreated, or treated with test compound (multiple concentrations) or reference standard drug control. After approximately 24 hours post-infection incubation @ 37° C. (in 5% CO2), cells are fixed for ELISA assay. The primary antibody is murine anti-HSV glycoprotein D monoclonal primary antibody and the secondary antibody is goat anti-mouse IgG linked to β-galactosidase. Thus the extent of viral replication is determined by assessing β-galactosidase activity by quantifying the generation of the 4-methyl umbelliferone fluorescent cleavage product after addition of the methyl umbelliferyl-β-D-galactoside (Sigma #M1633) substrate on a microfluorimeter (365 nm for excitation and 450 nm for emission). Antiviral activity (IC50) of the test compound is determined by comparing the flourescence obtained in absence of compound to that obtained in the presence of compound.

VZV strain Ellen = test: VZV Antiviral (ELISA) Assay; format: cell-based, varicella-zoster virus; conditions: human foreskin fibroblast cells, three days; for inhibition at 10 µg/mL / IC50: Human alphaherpesvirus 3, 72 h; for inhibition at 10 µg/mL: read-out: % inhibition 10 ug/ml VZV; for IC50: read-out: IC50 (ug/ml) VZV
Protocol: For the generation of stock VZV to be used in the assay, VZV strain Ellen (ATCC #VR-1367) is used to infect human foreskin fibroblast (HFF) cells at low multiplicity (less than 0.1) and incubated overnight at 37° C. in 5% CO2. After the overnight incubation, the mixture of uninfected and VZV-infected HFF infected cells are then harvested and added to each well of 96-well plates (3.5×10^4 cells in 100 μl DMEM supplemented with 2% FBS) which contain test compound or the reference standard drug control (in 100 μl DMEM supplemented with 2% FBS per well). These cells are incubated for three days at 37° C. in 5% CO2, then fixed for ELISA assay. The primary antibody is murine anti-VZV glycoprotein II monoclonal antibody (Applied Biosystems, Inc. #13-145-100) and the secondary antibody is goat anti-mouse IgG linked to β-galactosidase. Thus the extent of viral replication is determined by assessing β-galactosidase activity by quantifying the generation of the 4-methyl umbelliferone fluorescent cleavage product after addition of the methyl umbelliferyl-β-D-galactoside (Sigma #M1633) substrate on a microfluorimeter (365 nm for excitation and 450 nm for emission). Antiviral activity (IC50) of the test compound is determined by comparing the flourescence obtained in absence of compound to that obtained in the presence of compound.

HCMV wild-type = test: HCMV yield assay; format: cell-based, Human Cytomegalovirus; conditions: human foreskin fibroblasts, reduction of virus yield by 50%; for IC50: Human betaherpesvirus 5, Fibroblast, read-out: IC50 (ug/ml) HCMV
Protocol: Yield assay. Monolayer cultures of human foreskin fibroblasts are infected with HCMV wild-type, typically at a multiplicity of infection equal to 0.2, in the presence of inhibitor compound (varying concentrations). At three days post-infection, total virus produced in these cultures (i.e. virus yield) is assessed by harvesting and titering the virus in 12-well plates of cultured human foreskin fibroblasts (done in the absence of inhibitor). Plaques are quantified at 2 weeks post-infection. An inhibitor of HCMV is identified by the reduction in titer of virus yield in the presence, compared to the titer in the absence of compound. In this assay, the relative anti-HCMV activity of an inhibitor is typically determined by calculating the IC50 or IC90 value, that is, the amount of compound required to reduce the virus yield by 50% or 90%, respectively. Table I describes IC50 data for compounds tested against HCMV.

## COc1cc(OC)c(NC(=S)Nc2ccc(NC(=O)c3ccccc3C)nc2)cc1Cl [Example 283, N-[5-[[[(5-Chloro-2,4-dimethoxyphenyl)amino]thioxomethyl]amino]-2-pyridinyl]-2-methylbenzamide]
HSV-1
  IC50: 0.6 µg/mL (≈ 1.31 µM)
VZV strain Ellen; 10 ug/ml
  inhibition at 10 µg/mL: 17%
VZV strain Ellen
  IC50: > 10 µg/mL
HCMV wild-type
  IC50: 7 µg/mL (≈ 15.3 µM)

## Pyridine-2-carboxylic acid {6-[3-(5-chloro-2,4-dimethoxy-phenyl)-thioureido]-pyridin-3-yl}-amide [Example 506]
HSV-1
  IC50 (ug/ml) HSV: >10 µg/mL
VZV strain Ellen; 10 ug/ml
  % inhibition 10 ug/ml VZV: 68%
VZV strain Ellen
  IC50 (ug/ml) VZV: >10 µg/mL
HCMV wild-type
  IC50 (ug/ml) HCMV: >10 µg/mL

## COc1cc(OC)c(NC(=S)Nc2ccc(NC(=O)c3csnn3)cn2)cc1Cl [Example 514, [1,2,3]Thiadiazole-4-carboxylic acid {6-[3-(5-chloro-2,4-dimethoxy-phenyl)-thioureido]-pyridin-3-yl}-amide]
HSV-1
  IC50: 4 µg/mL (≈ 8.87 µM)
VZV strain Ellen; 10 ug/ml
  inhibition at 10 µg/mL: 62%
VZV strain Ellen
  IC50: > 10 µg/mL
HCMV wild-type
  IC50: 1.2 µg/mL (≈ 2.66 µM)
